# Target: T1, GR-LBD (Homo sapiens, UniProt P04150)
# T1 construct: purchased Life Technologies A15899
# T1 sequence (P04150 524-758 limits assumed): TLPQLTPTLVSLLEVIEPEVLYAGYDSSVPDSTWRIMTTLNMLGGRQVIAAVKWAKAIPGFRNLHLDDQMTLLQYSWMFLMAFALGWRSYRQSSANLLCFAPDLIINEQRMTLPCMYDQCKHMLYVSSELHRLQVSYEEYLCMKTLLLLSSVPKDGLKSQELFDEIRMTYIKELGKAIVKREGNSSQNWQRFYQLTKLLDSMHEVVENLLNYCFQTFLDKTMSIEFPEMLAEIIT
# Assay: hGR CoActivator Recruitment Assay (LanthaScreen TR-Fret GR Coactivator Assay)
# Assay type: biochemical
# Conditions: TR-FRET emission ratio 520/490; 10-point serial dilution, top concentration 200 nM; Fluorescein-SRC1-4 coactivator peptide; read-out: relative IC50
# Procedure: hGR CoActivator Recruitment Assay The activity of glucocorticoid compounds was measured using the LanthaScreen TR-Fret GR Coactivator Assay from Life Technologies (A15899). The compounds were acoustically transferred to an assay plate in a 3-fold 10-point serial dilution with a top concentration of 200 nM. Ten microliters of a 2× solution of GR-LBD was added to the compound plate and incubated for 10 min. Then ten microliters of a 2× solution of Fluoresein-SRC1-4 and Tb labelled anti-GST antibody was added to the plate. The plate was incubated in the dark for two hours and then read on an Envision plate reader, with excitation at 340 nm and emission at 520 nm (Fluorescein) and 490 nm (Terbium). The emission ratio of 520/490 was analyzed in Genedata. To obtain percent activity, the data was compared to a negative control of DMSO and positive control of […] dexamethasone.
row,IC50,Compound
1,2.14 nM,"C[C@]12C=CC(=O)C=C1CC[C@@H]1[C@@H]2[C@@H](O)C[C@@]2(C)[C@H]1C[C@H]1O[C@@H](c3ccc(Cc4ccc(C(=O)O)cc4)cc3F)O[C@]12C(=O)CO (single isomer, unassigned) [Example 1]"
2,4.5 nM,"C[C@]12C=CC(=O)C=C1CC[C@@H]1[C@@H]2[C@@H](O)C[C@@]2(C)[C@H]1C[C@H]1O[C@H](c3ccc(Cc4ccc(C(=O)O)cc4)cc3F)O[C@]12C(=O)CO (single isomer, unassigned) [Example 2]"
3,< 200 nM,"Cc1ccc(OCc2cccc(C(=O)O)c2)c(F)c1[C@@H]1O[C@@H]2C[C@H]3[C@@H]4CCC5=CC(=O)C=C[C@]5(C)[C@H]4[C@@H](O)C[C@]3(C)[C@]2(C(=O)CO)O1 [Example 3, 3-((2-Fluoro-3-((6aR,6bS,7S,8aS,8bS,10R,11aR,12aS,12bS)-7-hydroxy-8b-(2-hydroxyacetyl)-6a, 8a-dimethyl-4-oxo-2,4,6a,6b,7,8,8a,8b,11a,12,12a,12b-dodecahydro-1H-naphtho[2′,1′:4,5]indeno[1,2-d][1,3]dioxol-10-yl)-4-methylphenoxy)methyl)benzoic Acid]"
4,< 200 nM,"Cc1ccc(OCc2cccc(C(=O)O)c2)c(F)c1[C@H]1O[C@@H]2C[C@H]3[C@@H]4CCC5=CC(=O)C=C[C@]5(C)[C@H]4[C@@H](O)C[C@]3(C)[C@]2(C(=O)CO)O1 [Example 4, 3-((2-Fluoro-3-((6aR,6bS,7S,8aS,8bS,10 S,11aR,12a5,12bS)-7-hydroxy-8b-(2-hydroxyacetyl)-6a, 8a-dimethyl-4-oxo-2,4,6a,6b,7,8,8a, 8b,11a,12,12a,12b-dodecahydro-1H-naphtho[2′,1′:4,5]indeno[1,2-d][1,3]dioxol-10-yl)-4-methylphenoxy)methyl)benzoic Acid]"
5,< 200 nM,C[C@]12C=CC(=O)C=C1CC[C@@H]1[C@@H]2[C@@H](O)C[C@@]2(C)[C@H]1C[C@H]1O[C@@H](c3ccc(Oc4ccc(C(=O)O)cc4)cc3)O[C@]12C(=O)CO [Example 5]
6,< 200 nM,C[C@]12C=CC(=O)C=C1CC[C@@H]1[C@@H]2[C@@H](O)C[C@@]2(C)[C@H]1C[C@H]1O[C@H](c3ccc(Oc4ccc(C(=O)O)cc4)cc3)O[C@]12C(=O)CO [Example 6]
7,< 200 nM,C[C@]12C=CC(=O)C=C1CC[C@@H]1[C@@H]2[C@@H](O)C[C@@]2(C)[C@H]1C[C@H]1O[C@@H](c3ccc(Oc4cccc(C(=O)O)c4)cc3)O[C@]12C(=O)CO [Example 7]
8,< 200 nM,C[C@]12C=CC(=O)C=C1CC[C@@H]1[C@@H]2[C@@H](O)C[C@@]2(C)[C@H]1C[C@H]1O[C@H](c3ccc(Oc4cccc(C(=O)O)c4)cc3)O[C@]12C(=O)CO [Example 8]
9,< 200 nM,C[C@]12C=CC(=O)C=C1CC[C@@H]1[C@@H]2[C@@H](O)C[C@@]2(C)[C@H]1C[C@H]1O[C@@H](c3ccc(Cc4cccc(C(=O)O)c4)cc3F)O[C@]12C(=O)CO [Example 9]
10,> 200 nM,C[C@]12C=CC(=O)C=C1CC[C@@H]1[C@@H]2[C@@H](O)C[C@@]2(C)[C@H]1C[C@H]1O[C@H](c3ccc(Cc4cccc(C(=O)O)c4)cc3F)O[C@]12C(=O)CO [Example 10]
11,< 200 nM,COc1ccc(OCc2cccc(C(=O)O)c2)c(F)c1[C@@H]1O[C@@H]2C[C@H]3[C@@H]4CCC5=CC(=O)C=C[C@]5(C)[C@H]4[C@@H](O)C[C@]3(C)[C@]2(C(=O)CO)O1 [Example 11]
12,< 200 nM,COc1ccc(OCc2cccc(C(=O)O)c2)c(F)c1[C@H]1O[C@@H]2C[C@H]3[C@@H]4CCC5=CC(=O)C=C[C@]5(C)[C@H]4[C@@H](O)C[C@]3(C)[C@]2(C(=O)CO)O1 [Example 12]
13,> 200 nM,COc1ccc(OCc2ccccc2C(=O)O)c(F)c1[C@@H]1O[C@@H]2C[C@H]3[C@@H]4CCC5=CC(=O)C=C[C@]5(C)[C@H]4[C@@H](O)C[C@]3(C)[C@]2(C(=O)CO)O1 [Example 13]
14,< 200 nM,COc1ccc(OCc2ccccc2C(=O)O)c(F)c1[C@H]1O[C@@H]2C[C@H]3[C@@H]4CCC5=CC(=O)C=C[C@]5(C)[C@H]4[C@@H](O)C[C@]3(C)[C@]2(C(=O)CO)O1 [Example 14]
15,< 200 nM,Cc1ccc(OCc2ccccc2C(=O)O)c(F)c1[C@H]1O[C@@H]2C[C@H]3[C@@H]4CCC5=CC(=O)C=C[C@]5(C)[C@H]4[C@@H](O)C[C@]3(C)[C@]2(C(=O)CO)O1 [Example 15]

# From patent US11618767B2, “Carboxy substituted glucocorticoid receptor agonists” (Eli Lilly and Company, priority 2021, dated 2023)
